Assay: xn = mol fraction of the nth substance listed

CC(C)(C)O + CCO
303.2 K, 101.33 kPa
Conditions | viscosity [mPa·s]
x2 = 0.05 | 3.256
x2 = 0.1 | 3.156
x2 = 0.15 | 3.039
x2 = 0.2 | 2.914
x2 = 0.3 | 2.645
x2 = 0.4 | 2.36
x2 = 0.5 | 2.07
x2 = 0.6 | 1.793
x2 = 0.7 | 1.548
x2 = 0.8 | 1.336
x2 = 0.85 | 1.239
x2 = 0.9 | 1.147
x2 = 0.95 | 1.059

CN(CCO)CCO + CCO
313 K, 101.33 kPa
Conditions | viscosity [mPa·s]
x1 = 0.0079 | 0.832
x1 = 0.02 | 0.888
x1 = 0.0434 | 0.998
x1 = 0.216 | 2.132
x1 = 0.2986 | 2.967
x1 = 0.3977 | 4.196
x1 = 0.5237 | 7.05
x1 = 0.5978 | 9.003
x1 = 0.7028 | 12.92
x1 = 0.8085 | 17.79
x1 = 0.908 | 23.88

C[NH+](CCO)CCO.O=C[O-] + CCO
viscosity [mPa·s], 101 kPa
Conditions | 293.15 K | 303.15 K | 313.15 K | 323.15 K
x1 = 0.0643 | 32.41 | 17.44 | 8.445 | 5.799
x1 = 0.1074 | 52.86 | 25.09 | 13.49 | 9.254
x1 = 0.2133 | 106.7 | 51.03 | 27.25 | 18.63
x1 = 0.3117 | 159.3 | 78.2 | 41.19 | 28.12
x1 = 0.417 | 218.9 | 107.6 | 57.4 | 39.18
x1 = 0.5197 | 281.6 | 137.2 | 74.93 | 51.06
x1 = 0.6178 | 348.2 | 168.6 | 93.84 | 63.73
x1 = 0.7224 | 434.6 | 211.7 | 118.3 | 79.69
x1 = 0.8275 | 534.4 | 263.6 | 145.7 | 97.16
x1 = 0.9161 | 630.3 | 312.3 | 170 | 112.2
x1 = 0.95 | 665 | 328.9 | 178.8 | 117.6

Oc1ccc2ccccc2c1 + CCO
viscosity [mPa·s], 101 kPa
Conditions | x1 = 0.03 | x1 = 0.06 | x1 = 0.09 | x1 = 0.12 | x1 = 0.15
293.15 K | 1.428 | 1.684 | 1.969 | 2.28 | 2.641
303.15 K | 1.162 | 1.351 | 1.588 | 1.836 | 2.093
313.15 K | 0.975 | 1.125 | 1.305 | 1.487 | 1.669
323.15 K | 0.801 | 0.92 | 1.063 | 1.217 | 1.374

COCCOCCOCCO + CCOC(=O)OCC
298.15 K, 101.33 kPa
Conditions | viscosity [mPa·s]
x1 = 0.0084 | 0.762
x1 = 0.017 | 0.775
x1 = 0.0385 | 0.809
x1 = 0.0758 | 0.874
x1 = 0.0923 | 0.905
x1 = 0.1232 | 0.967
x1 = 0.1538 | 1.035
x1 = 0.1917 | 1.126
x1 = 0.2331 | 1.242
x1 = 0.2893 | 1.408
x1 = 0.326 | 1.528
x1 = 0.3668 | 1.676
x1 = 0.41 | 1.845
x1 = 0.4336 | 1.944
x1 = 0.4506 | 2.027
x1 = 0.4939 | 2.224
x1 = 0.5117 | 2.316
x1 = 0.5615 | 2.578
x1 = 0.603 | 2.819
x1 = 0.676 | 3.303
x1 = 0.7411 | 3.785
x1 = 0.8077 | 4.364
x1 = 0.8846 | 5.15
x1 = 0.925 | 5.608

COCCOCCOCCOC + CCOC(=O)OCC
298.15 K, 101.33 kPa
Conditions | viscosity [mPa·s]
x1 = 0.0103 | 0.759
x1 = 0.0175 | 0.767
x1 = 0.0246 | 0.775
x1 = 0.0367 | 0.788
x1 = 0.0576 | 0.813
x1 = 0.0787 | 0.837
x1 = 0.0958 | 0.856
x1 = 0.119 | 0.879
x1 = 0.1509 | 0.913
x1 = 0.1983 | 0.966
x1 = 0.2499 | 1.021
x1 = 0.3024 | 1.081
x1 = 0.3233 | 1.105
x1 = 0.3543 | 1.142
x1 = 0.4034 | 1.199
x1 = 0.4614 | 1.268
x1 = 0.5022 | 1.324
x1 = 0.552 | 1.386
x1 = 0.6112 | 1.463
x1 = 0.6561 | 1.519
x1 = 0.7044 | 1.583
x1 = 0.7371 | 1.624
x1 = 0.7905 | 1.693
x1 = 0.8464 | 1.764
x1 = 0.9175 | 1.85
x1 = 0.951 | 1.894

COCCOCCOCCO + CCOC(C)(C)C
viscosity [mPa·s], 101 kPa
Conditions | 293.15 K | 298.15 K | 303.15 K
x2 = 0.0504 | 6.269 | 5.479 | 4.777
x2 = 0.1 | 5.458 | 4.8 | 4.209
x2 = 0.1509 | 4.734 | 4.186 | 3.689
x2 = 0.2025 | 4.101 | 3.643 | 3.225
x2 = 0.2489 | 3.607 | 3.216 | 2.859
x2 = 0.3007 | 3.129 | 2.801 | 2.501
x2 = 0.3511 | 2.729 | 2.453 | 2.199
x2 = 0.3999 | 2.394 | 2.159 | 1.944
x2 = 0.4508 | 2.091 | 1.893 | 1.712
x2 = 0.5001 | 1.837 | 1.669 | 1.516
x2 = 0.5493 | 1.616 | 1.475 | 1.345
x2 = 0.6 | 1.418 | 1.3 | 1.192
x2 = 0.6503 | 1.248 | 1.149 | 1.058
x2 = 0.6998 | 1.102 | 1.019 | 0.943
x2 = 0.7491 | 0.974 | 0.906 | 0.842
x2 = 0.7999 | 0.86 | 0.803 | 0.751
x2 = 0.8509 | 0.759 | 0.712 | 0.669
x2 = 0.9001 | 0.674 | 0.635 | 0.6
x2 = 0.9498 | 0.599 | 0.566 | 0.536

From the CheMixHub viscosity set
